Measured values taken from ChEMBL document CHEMBL1152560, “Substituted 2-arylbenzothiazoles as kinase inhibitors: hit-to-lead optimization” (Bioorg Med Chem, 2009).

Experiments:
[1] = biological target: Protein kinase C theta type (Homo sapiens) (UniProt Q04759); assay: Residual activity of PKCtheta at 0.1 uM by microplate scintillation counting
[2] = biological target: BDNF/NT-3 growth factors receptor (Homo sapiens) (UniProt Q16620); assay: Residual activity of TRK-B at 1 uM by microplate scintillation counting
[3] = biological target: BDNF/NT-3 growth factors receptor (Homo sapiens) (UniProt Q16620); assay: Residual activity of TRK-B at 0.1 uM by microplate scintillation counting
[4] = biological target: Platelet-derived growth factor receptor alpha (Homo sapiens) (UniProt P16234); assay: Residual activity of PDGFRalpha at 10 uM by microplate scintillation counting
[5] = Residual activity of S6K at 0.1 uM by microplate scintillation counting
[6] = biological target: T1, Serine/threonine-protein kinase VRK1 (Homo sapiens) (UniProt Q99986); assay: Residual activity of VRK1 at 10 uM by microplate scintillation counting
T1 sequence (whole entry): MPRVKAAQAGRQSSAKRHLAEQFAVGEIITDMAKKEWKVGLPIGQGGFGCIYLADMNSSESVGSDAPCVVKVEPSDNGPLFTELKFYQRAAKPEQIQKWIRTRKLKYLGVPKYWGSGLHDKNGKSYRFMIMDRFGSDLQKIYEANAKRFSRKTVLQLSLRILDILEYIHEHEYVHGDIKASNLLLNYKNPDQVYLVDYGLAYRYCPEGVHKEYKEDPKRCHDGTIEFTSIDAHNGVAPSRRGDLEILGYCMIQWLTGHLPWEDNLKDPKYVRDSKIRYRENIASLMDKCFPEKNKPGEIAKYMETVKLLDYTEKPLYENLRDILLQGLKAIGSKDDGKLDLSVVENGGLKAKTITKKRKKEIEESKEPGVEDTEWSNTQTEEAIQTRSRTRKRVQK

[7] = biological target: High affinity nerve growth factor receptor (Homo sapiens) (UniProt P04629); assay: Residual activity of TRK-A at 10 uM by microplate scintillation counting
Sequence of High affinity nerve growth factor receptor (Homo sapiens) (P04629 33-796 limits assumed): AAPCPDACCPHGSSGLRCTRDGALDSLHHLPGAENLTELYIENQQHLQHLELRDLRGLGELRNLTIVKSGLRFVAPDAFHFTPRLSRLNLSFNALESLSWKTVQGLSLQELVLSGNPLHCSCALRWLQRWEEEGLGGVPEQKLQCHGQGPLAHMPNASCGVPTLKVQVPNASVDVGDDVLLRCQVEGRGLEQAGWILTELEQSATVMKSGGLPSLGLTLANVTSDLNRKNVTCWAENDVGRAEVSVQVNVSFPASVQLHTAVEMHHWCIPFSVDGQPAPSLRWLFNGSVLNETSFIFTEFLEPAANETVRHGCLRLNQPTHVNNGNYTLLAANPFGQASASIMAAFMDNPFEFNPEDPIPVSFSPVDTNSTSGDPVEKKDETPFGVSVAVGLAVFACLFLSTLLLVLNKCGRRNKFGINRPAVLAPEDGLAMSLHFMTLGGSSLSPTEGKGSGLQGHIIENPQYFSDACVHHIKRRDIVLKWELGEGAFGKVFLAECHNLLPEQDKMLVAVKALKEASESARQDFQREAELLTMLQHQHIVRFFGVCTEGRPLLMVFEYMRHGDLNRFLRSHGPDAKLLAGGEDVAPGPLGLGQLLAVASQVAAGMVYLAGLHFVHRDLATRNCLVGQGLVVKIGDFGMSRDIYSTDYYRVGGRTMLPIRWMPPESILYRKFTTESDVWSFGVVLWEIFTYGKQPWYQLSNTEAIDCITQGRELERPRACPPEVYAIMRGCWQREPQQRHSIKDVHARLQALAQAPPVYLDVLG

[8] = biological target: Serine/threonine-protein kinase B-raf (Homo sapiens) (UniProt P15056); assay: Residual activity of Wild type B-RAF at 0.1 uM by microplate scintillation counting
Sequence of Serine/threonine-protein kinase B-raf (Homo sapiens) (P15056 whole entry, the tested form may be a part): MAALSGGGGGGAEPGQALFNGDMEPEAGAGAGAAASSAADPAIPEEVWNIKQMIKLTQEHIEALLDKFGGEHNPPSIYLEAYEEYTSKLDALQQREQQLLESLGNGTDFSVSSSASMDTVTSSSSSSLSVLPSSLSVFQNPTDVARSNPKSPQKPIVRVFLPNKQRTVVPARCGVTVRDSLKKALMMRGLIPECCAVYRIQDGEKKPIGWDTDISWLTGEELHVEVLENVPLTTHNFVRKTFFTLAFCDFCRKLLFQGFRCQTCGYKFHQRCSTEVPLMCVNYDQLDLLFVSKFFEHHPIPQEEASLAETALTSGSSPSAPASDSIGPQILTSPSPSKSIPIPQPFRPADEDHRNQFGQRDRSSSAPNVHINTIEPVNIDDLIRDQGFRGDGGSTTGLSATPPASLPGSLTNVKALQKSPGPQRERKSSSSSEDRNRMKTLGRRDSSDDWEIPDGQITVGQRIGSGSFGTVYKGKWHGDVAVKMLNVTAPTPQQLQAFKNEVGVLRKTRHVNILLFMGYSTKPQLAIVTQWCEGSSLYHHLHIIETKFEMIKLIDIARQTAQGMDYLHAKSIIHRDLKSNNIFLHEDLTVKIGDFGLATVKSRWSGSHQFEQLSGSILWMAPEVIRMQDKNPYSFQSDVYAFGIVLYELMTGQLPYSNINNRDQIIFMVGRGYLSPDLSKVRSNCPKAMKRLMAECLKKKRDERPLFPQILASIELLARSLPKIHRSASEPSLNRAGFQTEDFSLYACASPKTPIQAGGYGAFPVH

[9] = biological target: T2, Discoidin domain-containing receptor 2 (Homo sapiens) (UniProt Q16832); assay: Residual activity of DDR2 at 10 uM by microplate scintillation counting
T2 sequence (whole entry): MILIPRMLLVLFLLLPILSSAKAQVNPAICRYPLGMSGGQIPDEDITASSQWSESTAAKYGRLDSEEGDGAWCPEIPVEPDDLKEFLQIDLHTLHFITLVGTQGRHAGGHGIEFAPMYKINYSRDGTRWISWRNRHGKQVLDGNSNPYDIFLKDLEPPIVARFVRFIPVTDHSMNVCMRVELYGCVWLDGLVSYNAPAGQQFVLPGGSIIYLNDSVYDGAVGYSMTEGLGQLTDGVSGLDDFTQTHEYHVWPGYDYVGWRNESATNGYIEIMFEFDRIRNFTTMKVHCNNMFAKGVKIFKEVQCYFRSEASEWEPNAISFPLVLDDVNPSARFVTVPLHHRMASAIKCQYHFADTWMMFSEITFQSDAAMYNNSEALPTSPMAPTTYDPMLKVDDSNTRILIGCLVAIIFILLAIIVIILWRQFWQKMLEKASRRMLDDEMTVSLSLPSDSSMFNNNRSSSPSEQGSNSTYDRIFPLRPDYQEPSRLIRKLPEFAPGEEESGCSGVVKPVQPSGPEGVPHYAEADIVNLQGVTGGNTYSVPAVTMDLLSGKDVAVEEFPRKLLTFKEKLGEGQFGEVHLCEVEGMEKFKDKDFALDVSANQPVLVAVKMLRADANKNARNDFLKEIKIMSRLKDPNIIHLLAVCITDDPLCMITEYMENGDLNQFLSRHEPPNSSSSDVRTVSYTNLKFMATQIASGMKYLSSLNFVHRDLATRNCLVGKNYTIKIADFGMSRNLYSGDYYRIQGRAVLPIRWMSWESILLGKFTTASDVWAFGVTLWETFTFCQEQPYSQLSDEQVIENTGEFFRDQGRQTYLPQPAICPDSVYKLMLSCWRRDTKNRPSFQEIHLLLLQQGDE

[10] = biological target: Epidermal growth factor receptor (Homo sapiens, UniProt P00533); assay: Residual activity of wild type EGF-R at 10 uM by microplate scintillation counting
Sequence of Epidermal growth factor receptor (P00533 whole entry): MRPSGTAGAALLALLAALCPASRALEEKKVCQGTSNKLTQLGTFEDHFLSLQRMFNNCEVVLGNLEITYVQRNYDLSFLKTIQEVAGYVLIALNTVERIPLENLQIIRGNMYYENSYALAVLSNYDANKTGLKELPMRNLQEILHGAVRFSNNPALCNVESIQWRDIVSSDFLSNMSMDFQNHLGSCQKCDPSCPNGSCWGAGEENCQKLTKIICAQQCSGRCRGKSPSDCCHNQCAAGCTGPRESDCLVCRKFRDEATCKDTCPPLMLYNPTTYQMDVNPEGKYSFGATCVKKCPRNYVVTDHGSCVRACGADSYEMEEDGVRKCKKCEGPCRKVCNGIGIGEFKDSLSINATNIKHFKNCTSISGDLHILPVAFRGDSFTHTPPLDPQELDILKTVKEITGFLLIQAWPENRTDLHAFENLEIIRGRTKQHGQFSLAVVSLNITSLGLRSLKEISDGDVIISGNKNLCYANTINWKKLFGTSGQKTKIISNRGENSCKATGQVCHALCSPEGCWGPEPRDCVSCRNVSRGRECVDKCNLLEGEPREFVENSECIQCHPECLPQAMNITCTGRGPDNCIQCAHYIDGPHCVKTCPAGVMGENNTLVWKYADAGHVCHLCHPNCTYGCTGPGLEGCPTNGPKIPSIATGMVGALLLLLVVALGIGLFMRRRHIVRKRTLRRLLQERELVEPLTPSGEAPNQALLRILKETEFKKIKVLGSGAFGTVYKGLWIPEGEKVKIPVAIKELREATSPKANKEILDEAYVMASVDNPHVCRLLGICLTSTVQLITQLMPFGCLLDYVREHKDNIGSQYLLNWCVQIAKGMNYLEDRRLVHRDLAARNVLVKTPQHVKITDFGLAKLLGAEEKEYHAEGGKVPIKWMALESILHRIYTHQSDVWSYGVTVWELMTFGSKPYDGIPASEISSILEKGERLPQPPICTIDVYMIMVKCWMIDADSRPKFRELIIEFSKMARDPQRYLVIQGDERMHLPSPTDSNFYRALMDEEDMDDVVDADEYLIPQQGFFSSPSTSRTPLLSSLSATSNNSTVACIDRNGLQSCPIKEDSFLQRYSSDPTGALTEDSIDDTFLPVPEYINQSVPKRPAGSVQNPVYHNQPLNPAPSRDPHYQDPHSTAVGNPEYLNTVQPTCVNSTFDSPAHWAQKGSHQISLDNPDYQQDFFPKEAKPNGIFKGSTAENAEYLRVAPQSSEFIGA

[11] = biological target: Calcium/calmodulin-dependent protein kinase kinase 2 (Homo sapiens) (UniProt Q96RR4); assay: Residual activity of CAMKK2 at 0.1 uM by microplate scintillation counting
Sequence of Calcium/calmodulin-dependent protein kinase kinase 2 (Homo sapiens) (Q96RR4 2-588 limits assumed): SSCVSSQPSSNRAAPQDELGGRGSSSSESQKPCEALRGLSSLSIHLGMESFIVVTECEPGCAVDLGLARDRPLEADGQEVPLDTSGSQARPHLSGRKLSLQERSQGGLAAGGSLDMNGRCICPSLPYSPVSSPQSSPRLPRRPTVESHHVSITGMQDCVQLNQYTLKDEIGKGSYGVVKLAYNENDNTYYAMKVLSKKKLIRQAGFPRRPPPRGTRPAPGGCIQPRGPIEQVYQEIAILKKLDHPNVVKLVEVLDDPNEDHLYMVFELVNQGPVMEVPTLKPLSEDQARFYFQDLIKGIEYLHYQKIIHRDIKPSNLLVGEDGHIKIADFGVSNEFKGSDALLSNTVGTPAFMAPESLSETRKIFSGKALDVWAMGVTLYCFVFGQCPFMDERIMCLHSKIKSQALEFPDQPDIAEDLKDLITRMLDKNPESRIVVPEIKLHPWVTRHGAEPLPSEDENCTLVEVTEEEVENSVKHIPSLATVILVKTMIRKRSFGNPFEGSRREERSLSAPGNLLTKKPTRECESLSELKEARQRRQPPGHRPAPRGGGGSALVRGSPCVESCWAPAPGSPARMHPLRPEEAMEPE

[12] = biological target: T3, Ephrin type-B receptor 3 (Homo sapiens) (UniProt P54753); assay: Residual activity of EPHB3 at 1 uM by microplate scintillation counting
T3 sequence (whole entry): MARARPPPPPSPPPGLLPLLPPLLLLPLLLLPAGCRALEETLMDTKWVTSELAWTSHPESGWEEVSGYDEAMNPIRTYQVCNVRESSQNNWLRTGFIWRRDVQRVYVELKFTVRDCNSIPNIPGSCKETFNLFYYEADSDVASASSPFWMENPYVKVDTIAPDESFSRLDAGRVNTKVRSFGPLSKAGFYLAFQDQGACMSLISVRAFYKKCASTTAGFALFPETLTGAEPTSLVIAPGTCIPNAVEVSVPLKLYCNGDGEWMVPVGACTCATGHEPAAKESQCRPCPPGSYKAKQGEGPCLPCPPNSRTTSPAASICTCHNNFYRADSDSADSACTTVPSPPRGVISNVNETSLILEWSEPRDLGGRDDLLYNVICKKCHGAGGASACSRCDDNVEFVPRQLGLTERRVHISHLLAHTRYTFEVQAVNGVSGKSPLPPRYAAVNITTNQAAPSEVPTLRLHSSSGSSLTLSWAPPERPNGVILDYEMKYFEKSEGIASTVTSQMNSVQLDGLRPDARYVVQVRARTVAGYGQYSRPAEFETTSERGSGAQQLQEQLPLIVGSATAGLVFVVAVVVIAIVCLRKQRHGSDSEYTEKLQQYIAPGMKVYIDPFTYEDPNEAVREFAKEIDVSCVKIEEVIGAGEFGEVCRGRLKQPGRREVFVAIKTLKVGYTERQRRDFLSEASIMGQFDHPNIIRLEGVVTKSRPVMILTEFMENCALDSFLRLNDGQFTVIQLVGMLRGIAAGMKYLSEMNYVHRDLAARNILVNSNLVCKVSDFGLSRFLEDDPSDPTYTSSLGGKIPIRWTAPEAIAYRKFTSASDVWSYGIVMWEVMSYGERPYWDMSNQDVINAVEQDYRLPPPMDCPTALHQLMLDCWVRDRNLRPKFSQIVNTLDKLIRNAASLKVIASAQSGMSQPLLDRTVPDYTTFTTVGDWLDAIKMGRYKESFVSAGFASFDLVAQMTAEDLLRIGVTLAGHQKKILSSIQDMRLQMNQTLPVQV

[13] = biological target: Fibroblast growth factor receptor 2 (Homo sapiens) (UniProt P21802); assay: Residual activity of FGFR2 at 1 uM by microplate scintillation counting
[14] = biological target: Tyrosine-protein kinase FRK (Homo sapiens) (UniProt P42685); assay: Residual activity of FRK at 0.1 uM by microplate scintillation counting
Sequence of Tyrosine-protein kinase FRK (Homo sapiens) (P42685 whole entry): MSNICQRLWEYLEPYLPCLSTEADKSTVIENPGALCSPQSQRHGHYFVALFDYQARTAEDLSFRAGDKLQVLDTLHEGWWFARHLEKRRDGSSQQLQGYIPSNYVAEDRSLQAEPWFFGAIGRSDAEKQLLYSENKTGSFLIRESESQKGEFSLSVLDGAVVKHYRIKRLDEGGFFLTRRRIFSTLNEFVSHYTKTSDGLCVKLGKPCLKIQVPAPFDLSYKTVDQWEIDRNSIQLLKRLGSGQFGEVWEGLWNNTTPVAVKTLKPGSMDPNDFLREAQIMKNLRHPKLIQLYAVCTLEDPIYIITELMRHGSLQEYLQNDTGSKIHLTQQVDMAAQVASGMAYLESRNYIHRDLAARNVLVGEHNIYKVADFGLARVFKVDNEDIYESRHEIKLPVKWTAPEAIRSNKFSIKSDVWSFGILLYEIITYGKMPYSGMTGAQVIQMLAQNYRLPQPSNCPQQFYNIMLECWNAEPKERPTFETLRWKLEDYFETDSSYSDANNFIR

Sequence of Protein kinase C theta type (Homo sapiens) (Q04759 whole entry, looked up): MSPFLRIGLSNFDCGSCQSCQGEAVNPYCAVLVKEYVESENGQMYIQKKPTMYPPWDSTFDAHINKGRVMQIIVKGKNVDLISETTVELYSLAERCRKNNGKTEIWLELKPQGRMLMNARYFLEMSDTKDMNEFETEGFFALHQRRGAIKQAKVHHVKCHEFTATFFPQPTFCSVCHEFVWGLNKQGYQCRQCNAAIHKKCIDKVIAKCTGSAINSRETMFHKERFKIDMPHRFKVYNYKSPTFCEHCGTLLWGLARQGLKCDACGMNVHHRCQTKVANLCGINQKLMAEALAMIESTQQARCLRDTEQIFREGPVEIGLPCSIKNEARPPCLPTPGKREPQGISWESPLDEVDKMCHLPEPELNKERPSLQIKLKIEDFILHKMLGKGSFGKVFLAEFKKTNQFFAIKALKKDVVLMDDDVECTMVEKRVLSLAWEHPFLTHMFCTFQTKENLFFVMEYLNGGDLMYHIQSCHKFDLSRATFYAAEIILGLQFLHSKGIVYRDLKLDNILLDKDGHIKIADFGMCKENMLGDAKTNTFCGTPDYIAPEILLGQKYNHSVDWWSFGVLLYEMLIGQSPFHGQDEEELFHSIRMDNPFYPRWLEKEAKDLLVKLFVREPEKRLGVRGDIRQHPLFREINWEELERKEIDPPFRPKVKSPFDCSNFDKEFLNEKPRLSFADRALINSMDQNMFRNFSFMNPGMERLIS

COc1cc2c(Oc3ccc(-c4nc5ccccc5s4)cc3)ncnc2cc1OCCCN1CCN(C)CC1
residual activity [1]: 100% | residual activity [2]: 93% | residual activity [3]: 82% | residual activity [4]: 20% | residual activity [5]: 85% | residual activity [6]: 127% | residual activity [7]: 81% | residual activity [8]: 90% | residual activity [9]: 25% | residual activity [10]: 52% | residual activity [11]: 86% | residual activity [12]: 108% | residual activity [13]: 111% | residual activity [14]: 100%

COc1cc2c(Oc3ccc(-c4nc5ccccc5s4)cc3)ncnc2cc1OCCCN1CCCC1
residual activity [1]: 95% | residual activity [2]: 104% | residual activity [3]: 97% | residual activity [4]: 15% | residual activity [5]: 90% | residual activity [6]: 135% | residual activity [7]: 55% | residual activity [8]: 98% | residual activity [9]: 42% | residual activity [10]: 67% | residual activity [11]: 91% | residual activity [12]: 105% | residual activity [13]: 107% | residual activity [14]: 100%

COc1cc2c(Oc3ccc(-c4nc5ccccc5s4)cc3F)ncnc2cc1OCCCN1CCN(C)CC1
residual activity [1]: 95% | residual activity [2]: 95% | residual activity [3]: 94% | residual activity [4]: 30% | residual activity [5]: 87% | residual activity [6]: 126% | residual activity [7]: 34% | residual activity [8]: 95% | residual activity [9]: 30% | residual activity [10]: 48% | residual activity [11]: 84% | residual activity [12]: 106% | residual activity [13]: 120% | residual activity [14]: 99%
